Data from paper PMC12299506, “Flipping the Target: Evaluating Natural LDHA Inhibitors for Selective LDHB Modulation” (Molecules, 2025).
pIC50, pKi: −log10 of the molar value.

How the values were obtained:
LDHB [1] = target: T1, LDHB (Homo sapiens, UniProt P07195); test: LDHB activity assay, 96-well endpoint colorimetric (lactate to pyruvate, NADH/NBT/PMS formazan, 570 nm); format: biochemical; details: for pIC50: dose-response, nonlinear regression
T1 construct: purchased R&D Systems (Minneapolis, MN, USA) 9205-HB
From the text: This assay is based on the detection of NADH generated during the enzymatic conversion of lactate to pyruvate (via reduction of NAD^+), which subsequently reacts with nitro blue tetrazolium (NBT) in the presence of phenazine methosulfate (PMS). This reaction produces a blue-purple formazan dye with a maximum absorbance at approximately 570 nm.
Unless otherwise specified, all chemicals were obtained from Sigma-Aldrich (St. Louis, MO, USA). Recombinant human LDHB (Catalog #: 9205-HB) was purchased from R&D Systems (Minneapolis, MN, USA). […] AXKO-0046 (Catalog #: HY-147216A) was obtained from MedChemExpress (Monmouth Junction, NJ, USA).
This assay quantifies LDHB activity by measuring NADH generation resulting from the conversion of lactate to pyruvate, a reaction catalyzed by LDHB. The produced NADH reacts with nitro blue tetrazolium (NBT) in the presence of phenazine methosulfate (PMS), generating a blue-purple formazan dye detectable at approximately 570 nm.
The reaction was performed in a buffer containing 50 mM CHES (pH 9.6), 150 mM NaCl, 300 μM NBT, 30 μM PMS, and 0.13% gelatin (used to prevent formazan precipitation). Each well was loaded with 90 μL of the reaction buffer followed by 25 μL of a substrate solution comprising 10 mM NAD^+ and 250 mM sodium lactate in the same buffer. Next, 5 μL of the test compound at varying concentrations was added; the buffer alone was used in the control wells. The plates were incubated for 30 s at 25 °C in the dark before measuring the initial absorbance at 570 nm (Ainitial) using a microplate reader (PerkinElmer, Waltham, MA, USA). The reaction was initiated by adding 2 μL of 7.5 μM LDHB. After a 5 min incubation with continuous shaking, a second absorbance measurement (Afinal) was taken.
The difference in absorbance (ΔA570 = Afinal − Ainitial) was used to calculate the amount of NADH produced by referencing a standard curve (0–15 nmol NADH). Readings were corrected for background using a blank lacking LDHB. One unit of enzyme activity was defined as the amount of enzyme producing 1 μmol of NADH per minute at 25 °C. LDHB activity (mU/mL) was calculated using the following Equation (1):(1) LDH activity(mU/mL)=[NADH](nmol)/Tfinal−Tinitial(min)×V(mL)=nmol/min×mL where [NADH] is the amount (in nmol) of NADH that is released between Tfinal and Tinitial, and V is the sample volume (LDHB in mL) added in each well of the 96-well plate.
IC50 values for each compound were calculated using GraphPad Prism v8.0.2 (GraphPad Software Inc., San Diego, CA, USA) by fitting dose–response curves to the enzymatic activity data via nonlinear regression analysis. All the measurements were performed in triplicate.

LDHA [2] = test system: LDHA; design: method as in PMID 34571279; details: EMMA; cited from earlier work
LDHA [3] = test system: LDHA; design: method as in PMID 39054614; details: enzymatic assays; cited from earlier work
LDHB [4] = target: T1, LDHB; test: LDHB kinetic studies (substrate competition, Michaelis-Menten, mixed-model inhibition); format: biochemical; details: for mechanism of LDHB inhibition: Michaelis-Menten analysis, vs lactate and NAD+; for Vmax, NAD+: NAD+ varied, 25 mM sodium lactate; for Vmax, lactate: lactate varied, NAD+ 1 mM; for pKi / α (alpha factor, mechanism of inhibition): mixed-model inhibition fit; for α (alpha factor, mechanism of inhibition): α < 1 uncompetitive
Description: These kinetic studies followed the classical Michaelis–Menten framework. For NAD^+ titration, assays were performed using eight NAD^+ concentrations (120, 240, 360, 480, 700, 900, 1000, and 1200 μM) in the presence of 25 mM sodium lactate. For lactate titration, eight lactate concentrations (2.5, 5, 10, 15, 20, 25, 37.5, and 50 mM) were evaluated with a fixed NAD^+ concentration of 1 mM. Each reaction was carried out with 2.5 nM LDHB and increasing concentrations of either inhibitor (5–100 μM), followed by incubation at room temperature for 6.5 min. Initial reaction velocities were determined and fitted to a nonlinear Michaelis–Menten model to extract apparent kinetic parameters (Km and Vmax) using GraphPad Prism v8.0.2 (GraphPad Software Inc., San Diego, CA, USA). Lineweaver–Burk plots (1/V vs. 1/[S]) were also generated to visualize shifts in enzyme kinetics. To complement these analyses, the data were further examined using a mixed-model inhibition approach within GraphPad Prism. This model, which avoids the distortions associated with reciprocal transformations, evaluates inhibition kinetics using polynomial regression and is governed by the following equations [70]. The mixed-model fit is described by Equations (2)–(4), and contains competitive, uncompetitive, and noncompetitive inhibition terms:(2) Vmaxapp=Vmax/(1+I/a·Ki) (3) Kmapp=Km·(1+I/Ki)/(1+I/a·Ki) (4) Y=Vmaxapp·X/(Kmapp+X)
In the above equations, Vmaxapp and Kmapp are the maximum enzyme activity and Michaelis–Menten constant, respectively, in the presence of an inhibitor; Vmax and Km represent the maximum enzyme velocity and Michaelis–Menten constant, respectively, in the absence of an inhibitor; and Ki is the inhibition constant. In addition, X is the substrate concentration, Y is the enzyme activity, I is the inhibitor concentration, and alpha (α) is a coefficient that defines the mechanism of inhibition.

LDHB [5] = target: T1, LDHB; test: Effect of pre-incubation time on LDHB inhibition; format: biochemical; details: pre-incubation with LDHB for 120 min, compound 50 µM
Description: Supplementary Figure S2. The eﬀect of pre-incubation time on the inhibitory activity of […]
Each compound (50 µΜ) was incubated with […] of LDHB in a 10 µL reaction within a 96-well plate for varying times. The reaction was carried out in 80 µL of 50 mM CHES buﬀer (pH 9.6) containing 150 mM NaCl, 300 µΜ NBT, 30 µΜ PMS, and 0.13% gelatin, with 10 µL of substrate mix (10 mM NAD+ and 250 mM sodium lactate) added to initiate the reaction. LDHB activity was measured as described in the text, with control wells lacking inhibitors. Statistical signiﬁcance was determined using one way ANONA (p < 0.05), with ʹn.s.ʹ indicating non- […]
(1 picture or pasted object on this page, not shown here)

LDHC = details: cited from earlier work
LDHA [6] = details: cited from earlier work

T1 sequence (P07195 whole entry): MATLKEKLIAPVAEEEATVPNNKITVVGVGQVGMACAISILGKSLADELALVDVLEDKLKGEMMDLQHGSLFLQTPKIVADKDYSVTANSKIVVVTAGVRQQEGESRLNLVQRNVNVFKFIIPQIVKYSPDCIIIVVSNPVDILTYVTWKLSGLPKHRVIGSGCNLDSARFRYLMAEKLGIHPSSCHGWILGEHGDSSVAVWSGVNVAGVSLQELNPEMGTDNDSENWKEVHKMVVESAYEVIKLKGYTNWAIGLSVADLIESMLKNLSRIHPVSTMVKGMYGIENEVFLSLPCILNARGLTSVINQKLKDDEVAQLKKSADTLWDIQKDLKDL

Row | SMILES | inhibition at 50 µM (LDHB [1]; compound at 50 µM) [%] | pIC50 (LDHB [1]) | inhibition rate of LDHA activity (LDHA [2]) | pIC50 (LDHA [3]) | mechanism of LDHB inhibition (LDHB [4]) | Vmax, NAD+ (LDHB [4]; inhibitor 10 μM) [mU/mL] | Vmax, NAD+ (LDHB [4]; inhibitor 20 μM) [mU/mL] | Vmax, NAD+ (LDHB [4]; inhibitor 30 μM) [mU/mL] | Vmax, NAD+ (LDHB [4]; inhibitor 40 μM) [mU/mL] | Vmax, NAD+ (LDHB [4]; inhibitor 50 μM) [mU/mL] | Vmax, NAD+ (LDHB [4]; inhibitor 75 μM) [mU/mL] | Vmax, NAD+ (LDHB [4]; inhibitor 100 μM) [mU/mL] | Vmax, lactate (LDHB [4]; inhibitor 10 μM) [mU/mL] | Vmax, lactate (LDHB [4]; inhibitor 20 μM) [mU/mL] | Vmax, lactate (LDHB [4]; inhibitor 30 μM) [mU/mL] | Vmax, lactate (LDHB [4]; inhibitor 40 μM) [mU/mL] | Vmax, lactate (LDHB [4]; inhibitor 50 μM) [mU/mL] | Vmax, lactate (LDHB [4]; inhibitor 75 μM) [mU/mL] | Vmax, lactate (LDHB [4]; inhibitor 100 μM) [mU/mL] | pKi (LDHB [4]; with NAD+) | further results
1 | c1ccc(CNCCc2c(CNC3CCCCCC3)[nH]c3ccccc23)cc1 [AXKO-0046, reference compound] | ~75 | 8.25 |  |  |  |  |  |  |  |  |  |  |  |  |  |  |  |  |  |  | 
2 | CC[C@@]1(O)C(=O)OCc2c1cc1n(c2=O)Cc2cc3ccccc3nc2-1 [Camptothecin] |  |  | no inhibitory effect |  |  |  |  |  |  |  |  |  |  |  |  |  |  |  |  |  | inhibition of LDHB activity (LDHB [1]; compound at 50 µM): minimal inhibition
3 | O=c1c(O)c(-c2ccc(O)c(O)c2)oc2cc(O)ccc12 [Fisetin] | ~22 |  |  | 7.18 |  |  |  |  |  |  |  |  |  |  |  |  |  |  |  |  | 
4 | O=c1cc(-c2ccc(O)c(O)c2)oc2cc(O)cc(O)c12 [Luteolin] | ~55 | 4.49 | 50.7% | 5.75 | uncompetitive inhibition | 945 ± 27 | 868 ± 35 | 774 ± 32 | 664 ± 40 | 563 ± 29 | 456 ± 27 | 417 ± 22 | 942 ± 31 | 888 ± 16 | 832 ± 21 | 749.2 ± 17 | 624 ± 24 | 506 ± 15 | 406 ± 22 | 3.71 | α (alpha factor, mechanism of inhibition) (LDHB [4]; with NAD+): 0.34; pKi (LDHB [4]; with lactate): 3.46; α (alpha factor, mechanism of inhibition) (LDHB [4]; with lactate): 0.21; change of inhibitory effect with longer pre-incubation time (LDHB [5]): did not increase
5 | O=c1c(O)c(-c2ccc(O)c(O)c2)oc2cc(O)cc(O)c12 [Quercetin] | ~50 | 4.42 | 53.6% | 4.47 | uncompetitive inhibition | 952 ± 36 | 861 ± 22 | 761 ± 52 | 701 ± 44 | 605 ± 46 | 504 ± 44 | 454 ± 33 | 938 ± 29 | 881 ± 19 | 791 ± 37 | 689 ± 53 | 621 ± 23 | 557 ± 37 | 478 ± 26 | 3.27 | α (alpha factor, mechanism of inhibition) (LDHB [4]; with NAD+): 0.14; pKi (LDHB [4]; with lactate): 3.58; α (alpha factor, mechanism of inhibition) (LDHB [4]; with lactate): 0.31; change of inhibitory effect with longer pre-incubation time (LDHB [5]): did not increase
6 | Cc1cc2c(C(C)C)c(O)c(O)c(C=O)c2c(O)c1-c1c(C)cc2c(C(C)C)c(O)c(O)c(C=O)c2c1O [gossypol, Gossypol] |  |  |  |  |  |  |  |  |  |  |  |  |  |  |  |  |  |  |  |  | pKi (LDHC): 5.38; pKi (LDHA [6]): 5.72
